According to patent publication US12173088B2, “Anti-microbial peptides” (priority 2018, dated 2024):
In brackets after ≈: the same amount, converted by molar mass. Read-outs that look alike come from different tables or passages of the source. Peptide text beside a SMILES is read from it.

How the values were obtained:
Hemolytic assay = format: cell-based, human; settings: human, human red blood cells, 2% (v/v)
Procedure, shortened: (§1)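 HL50 marks the peptide level lysing half of a 2% (v/v) suspension of washed human erythrocytes after 1 h at 37 °C. Released hemoglobin measured at 545 nm, scaled between PBS (0%) and Triton X-100 (2% or 1%; 100%). Selectivity index computed as HL50 over MIC.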

P. aeruginosa PAO1 = format: cell-based, Pseudomonas aeruginosa
Procedure, shortened: (§2)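 Broth microdilution in tryptic soy broth: log-phase cultures (OD600 ≈0.5) diluted to OD600 0.001, given two-fold peptide dilutions, incubated overnight at 37° C. Growth read at 630 nm.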

S. aureus USA300 = assay: microbe, parasite or virus in culture; format: cell-based, Staphylococcus aureus; settings: for MIC S. aureus USA 300: quantified by UV
Procedure, shortened: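 Broth microdilution: log-phase cultures in tryptic soy broth diluted to OD600 0.001, exposed to two-fold diluted peptides at 37° C overnight, growth read at 630 nm. Medium effects on S. aureus USA300 tested with up to 200 mM NaCl, 2 mM CaCl2, 5-10% human serum, mouse plasma, fluids or tissue homogenate supernatants.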

E. coli ATCC 25922 = format: cell-based, Escherichia coli
Procedure, shortened: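 Peptides, serially diluted two-fold, were incubated overnight at 37 °C with E. coli ATCC 25922 from log-phase cultures adjusted to OD600 0.001. Turbidity at 630 nm served as the read-out in this broth microdilution format.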

K. pneumoniae ATCC 13883 = format: cell-based, Klebsiella pneumoniae; settings: quantified by UV
Procedure, shortened: as §2

[1] = tested on: human red blood cells (hRBCs); assay: Hemolytic assay; format: cell-based
Procedure, shortened: as §1

[2] = Table 4, quantitated based on weight, read-out: HL50, peptide concentration for 50% hemolysis
[3] = Table 4, quantitated based on weight

## CC(C)C[C@H](NC(=O)[C@H](CCCCN)NC(=O)CNC(=O)[C@H](CC(C)C)NC(=O)[C@H](CC(C)C)NC(=O)[C@H](CC(C)C)NC(=O)[C@H](CO)NC(=O)[C@H](CC(C)C)NC(=O)[C@H](CC(C)C)NC(=O)[C@H](CC(C)C)NC(=O)[C@H](CO)NC(=O)[C@H](CC(C)C)NC(=O)CN)C(N)=O [DFT504, GLSLLLSLLLGKL] (H-GLSLLLSLLLGKL-NH2; N-terminus and C-terminus assumed)
Hemolytic assay
  HC50 at 1 h: 8 µM
P. aeruginosa PAO1; PAO1
  MIC PA (P. aeruginosa PAO1): >25 µM
S. aureus USA300; USA300
  MIC SA (S. aureus USA300): 6.2 µM (≈ 8.3 µg/mL)
E. coli ATCC 25922; ATCC 25922
  MIC EC (E. coli ATCC 25922): >25 µM

## CC(C)C[C@H](NC(=O)[C@H](CC(C)C)NC(=O)[C@H](CCCCN)NC(=O)CNC(=O)[C@H](CC(C)C)NC(=O)[C@H](CC(C)C)NC(=O)[C@H](CC(C)C)NC(=O)[C@H](CC(C)C)NC(=O)[C@H](CO)NC(=O)[C@H](CO)NC(=O)[C@H](CC(C)C)NC(=O)[C@H](CC(C)C)NC(=O)CN)C(N)=O [DFT505, GLLSSLLLLGKLL] (H-GLLSSLLLLGKLL-NH2; N-terminus and C-terminus assumed)
Hemolytic assay
  HC50 at 1 h: 20 µM
P. aeruginosa PAO1; PAO1
  MIC PA (P. aeruginosa PAO1): >25 µM
S. aureus USA300; USA300
  MIC SA (S. aureus USA300): 3.1 µM (≈ 4.15 µg/mL)
E. coli ATCC 25922; ATCC 25922
  MIC EC (E. coli ATCC 25922): >25 µM

## CC(C)C[C@H](NC(=O)[C@H](CC(C)C)NC(=O)CNC(=O)[C@H](CC(C)C)NC(=O)[C@H](CC(C)C)NC(=O)[C@H](CO)NC(=O)[C@H](CC(C)C)NC(=O)[C@H](CC(C)C)NC(=O)[C@H](CO)NC(=O)[C@H](CC(C)C)NC(=O)[C@H](CC(C)C)NC(=O)[C@H](CCCCN)NC(=O)CN)C(N)=O [DFT527, GKLLSLLSLLGLL] (H-GKLLSLLSLLGLL-NH2; N-terminus and C-terminus assumed)
Hemolytic assay
  HC50 at 1 h: 20 µM
P. aeruginosa PAO1; PAO1
  MIC PA (P. aeruginosa PAO1): >25 µM
S. aureus USA300; USA300
  MIC SA (S. aureus USA300): 3.1 µM (≈ 4.15 µg/mL)
E. coli ATCC 25922; ATCC 25922
  MIC EC (E. coli ATCC 25922): >25 µM

## CC(C)C[C@H](NC(=O)[C@H](CC(C)C)NC(=O)[C@H](CCCCN)NC(=O)[C@H](CC(C)C)NC(=O)CNC(=O)[C@H](CC(C)C)NC(=O)[C@H](CO)NC(=O)[C@H](CC(C)C)NC(=O)[C@H](CC(C)C)NC(=O)[C@H](CO)NC(=O)[C@H](CC(C)C)NC(=O)[C@H](CC(C)C)NC(=O)CN)C(N)=O [DFT531, GLLSLLSLGLKLL] (H-GLLSLLSLGLKLL-NH2; N-terminus and C-terminus assumed)
Hemolytic assay; [2]
  HC50 at 1 h: 7 µM
P. aeruginosa PAO1; [3]
  MIC PA (P. aeruginosa PAO1): >25 µM
S. aureus USA300; [3]
  MIC SA (S. aureus USA300): 0.8 µM (≈ 1.07 µg/mL)
E. coli ATCC 25922; [3]
  MIC EC (E. coli ATCC 25922): >25 µM

## CC(C)C[C@H](NC(=O)[C@H](CC(C)C)NC(=O)[C@H](CCCCN)NC(=O)[C@H](CC(C)C)NC(=O)CNC(=O)[C@H](CC(C)C)NC(=O)[C@H](CO)NC(=O)[C@H](CC(C)C)NC(=O)[C@H](CC(C)C)NC(=O)[C@H](CO)NC(=O)CNC(=O)[C@H](CC(C)C)NC(=O)[C@@H](N)CC(C)C)C(N)=O [DFT532, LLGSLLSLGLKLL] (H-LLGSLLSLGLKLL-NH2; N-terminus and C-terminus assumed)
Hemolytic assay
  HC50 at 1 h: 13 µM
P. aeruginosa PAO1; PAO1
  MIC PA (P. aeruginosa PAO1): >25 µM
S. aureus USA300; USA300
  MIC SA (S. aureus USA300): 1.6 µM (≈ 2.14 µg/mL)
E. coli ATCC 25922; ATCC 25922
  MIC EC (E. coli ATCC 25922): >25 µM

## CC(C)C[C@H](NC(=O)[C@H](CC(C)C)NC(=O)[C@H](CCCCN)NC(=O)[C@H](CC(C)C)NC(=O)CNC(=O)[C@H](CC(C)C)NC(=O)[C@H](CO)NC(=O)[C@H](CC(C)C)NC(=O)[C@H](CC(C)C)NC(=O)[C@H](CC(C)C)NC(=O)[C@H](CO)NC(=O)[C@H](CC(C)C)NC(=O)[C@@H](N)CCCCN)C(N)=O [DFT560, KLSLLLSLGLKLL] (H-KLSLLLSLGLKLL-NH2; N-terminus and C-terminus assumed)
Hemolytic assay
  HC50 at 1 h: 25 µM
P. aeruginosa PAO1; PAO1
  MIC PA (P. aeruginosa PAO1): >25 µM
S. aureus USA300; [3]
  MIC SA (S. aureus USA300): 1.6 µM (≈ 2.26 µg/mL)
E. coli ATCC 25922; ATCC 25922
  MIC EC (E. coli ATCC 25922): >25 µM

## CC(C)C[C@H](NC(=O)[C@H](CC(C)C)NC(=O)[C@H](CCCCN)NC(=O)[C@H](CC(C)C)NC(=O)[C@H](CCCCN)NC(=O)[C@H](CC(C)C)NC(=O)[C@H](CO)NC(=O)[C@H](CC(C)C)NC(=O)[C@H](CC(C)C)NC(=O)[C@H](CC(C)C)NC(=O)[C@H](CO)NC(=O)[C@H](CC(C)C)NC(=O)CN)C(N)=O [DFT563, GLSLLLSLKLKLL] (H-GLSLLLSLKLKLL-NH2; N-terminus and C-terminus assumed)
Hemolytic assay
  HC50 at 1 h: > 300 µM
P. aeruginosa PAO1; PAO1
  MIC PA (P. aeruginosa PAO1): >25 µM
S. aureus USA300; USA300
  MIC SA (S. aureus USA300): 6.2 µM (≈ 8.74 µg/mL)
E. coli ATCC 25922; ATCC 25922
  MIC EC (E. coli ATCC 25922): >25 µM

## CC(C)C[C@H](NC(=O)[C@H](CC(C)C)NC(=O)[C@H](CCCCN)NC(=O)[C@H](CC(C)C)NC(=O)CNC(=O)[C@H](CC(C)C)NC(=O)[C@H](CCCCN)NC(=O)[C@H](CC(C)C)NC(=O)[C@H](CC(C)C)NC(=O)[C@H](CC(C)C)NC(=O)[C@H](CCCCN)NC(=O)[C@H](CC(C)C)NC(=O)CN)C(N)=O [DFT564, GLKLLLKLGLKLL] (H-GLKLLLKLGLKLL-NH2; N-terminus and C-terminus assumed)
Hemolytic assay
  HC50 at 1 h: < 25 µM
P. aeruginosa PAO1; PAO1
  MIC PA (P. aeruginosa PAO1): >25 µM
S. aureus USA300; USA300
  MIC: 3.1 µM (≈ 4.4 µg/mL)
S. aureus USA300; USA300, pH 6.8
  MIC: 1.6 µM (≈ 2.27 µg/mL)
S. aureus USA300; USA300, pH 7.4
  MIC: 3.1 µM (≈ 4.4 µg/mL)
S. aureus USA300; USA300, pH 8
  MIC: 1.6 µM (≈ 2.27 µg/mL)
E. coli ATCC 25922; ATCC 25922
  MIC EC (E. coli ATCC 25922): >25 µM

## CC(C)C[C@H](NC(=O)[C@H](CC(C)C)NC(=O)[C@H](CCCCN)NC(=O)[C@H](CC(C)C)NC(=O)CNC(=O)[C@H](CC(C)C)NC(=O)[C@H](CCCCN)NC(=O)[C@H](CC(C)C)NC(=O)[C@H](CC(C)C)NC(=O)[C@H](CC(C)C)NC(=O)[C@H](CCCCN)NC(=O)[C@H](CC(C)C)NC(=O)[C@@H](N)CCCCN)C(N)=O [DFT565, KLKLLLKLGLKLL] (H-KLKLLLKLGLKLL-NH2; N-terminus and C-terminus assumed)
Hemolytic assay
  HC50 at 1 h: 50 µM
P. aeruginosa PAO1; PAO1
  MIC PA (P. aeruginosa PAO1): >25 µM
S. aureus USA300; USA300
  MIC: 3.1 µM (≈ 4.63 µg/mL)
  MIC SA (S. aureus USA300): 0.8 µM (≈ 1.19 µg/mL)
S. aureus USA300; USA300, pH 6.8
  MIC: 3.1 to 6.2 µM
S. aureus USA300; USA300, pH 7.4
  MIC: 3.1 µM (≈ 4.63 µg/mL)
S. aureus USA300; USA300, pH 8
  MIC: 3.1 µM (≈ 4.63 µg/mL)
E. coli ATCC 25922; ATCC 25922
  MIC EC (E. coli ATCC 25922): >25 µM

## CC(C)C[C@H](NC(=O)[C@H](CC(C)C)NC(=O)[C@H](CCCCN)NC(=O)CNC(=O)[C@H](CC(C)C)NC(=O)[C@H](CC(C)C)NC(=O)[C@H](CO)NC(=O)[C@H](CC(C)C)NC(=O)[C@H](CC(C)C)NC(=O)[C@H](CO)NC(=O)[C@H](CC(C)C)NC(=O)[C@H](CC(C)C)NC(=O)CN)C(N)=O [DFTamP1, GLLSLLSLLGKLL] (H-GLLSLLSLLGKLL-NH2; N-terminus assumed)
K. pneumoniae ATCC 13883; Table 2
  MIC K. pneumoniae: >25 µM
K. pneumoniae ATCC 13883; Table 3
  MIC K. pneumonia ATCC 13883: >25 µM
Hemolytic assay; [2]
  HC50 at 1 h: 10 µM
[1]; Table 2, lysis of 50% hRBCs (2% v/v)
  HL50: <3.1 µM
[1]; Table 3, hRBCs 2% v/v
  HL50: <3.1 µM
P. aeruginosa PAO1; Table 2, quantified by UV
  MIC P. aeruginosa PAO1: >25 µM
P. aeruginosa PAO1; [3]
  MIC PA (P. aeruginosa PAO1): >25 µM
S. aureus USA300; 1 mM Ca2+
  MIC: 0.78 µM (≈ 1.04 µg/mL)
S. aureus USA300; 2 mM Ca2+
  MIC: 0.78 to 1.56 µM
S. aureus USA300; 50 mM NaCl
  MIC: 0.78 µM (≈ 1.04 µg/mL)
S. aureus USA300; 100 mM NaCl
  MIC: 0.78 µM (≈ 1.04 µg/mL)
S. aureus USA300; 200 mM NaCl
  MIC: 0.78 µM (≈ 1.04 µg/mL)
S. aureus USA300; Human serum (5%), Table 5
  MIC: 12.5 µM (≈ 16.7 µg/mL)
S. aureus USA300; Murine plasma (5%), Table 5
  MIC: 6.2^ 2 μM
S. aureus USA300; NaCl (150 mM), Table 5
  MIC: 3.1 to 6.2 µM
S. aureus USA300; No salts added, Table 6, by UV
  MIC: 0.78 µM
S. aureus USA300; Table 2, peptides amidated
  MIC S. aureus USA 300: 0.78 µM (≈ 1.04 µg/mL)
S. aureus USA300; Table 3
  MIC S. aureus USA 300: 0.78 µM (≈ 1.04 µg/mL)
S. aureus USA300; [3]
  MIC SA (S. aureus USA300): 3.1 µM (≈ 4.15 µg/mL)
S. aureus USA300; pH 6.8, Table 5, by weight
  MIC: 6.2 µM (≈ 8.3 µg/mL)
S. aureus USA300; pH 7.4, Table 5
  MIC: 3.1 µM (≈ 4.15 µg/mL)
S. aureus USA300; pH 8.0, Table 5
  MIC: 3.1 µM (≈ 4.15 µg/mL)
E. coli ATCC 25922; Table 2, quantified by UV
  MIC E. coli ATCC 25922: >25 µM
E. coli ATCC 25922; [3]
  MIC EC (E. coli ATCC 25922): >25 µM
